The record followed here is patent US10973832B2, “Muscarinic M1 receptor agonists” (Heptares Therapeutics Limited, priority 2011, dated 2021).

pEC50: −log10 of the molar value.

In series [1] the target is T1, human muscarinic M1 receptor (Homo sapiens, UniProt P11229).
T1 sequence (P11229 1-460): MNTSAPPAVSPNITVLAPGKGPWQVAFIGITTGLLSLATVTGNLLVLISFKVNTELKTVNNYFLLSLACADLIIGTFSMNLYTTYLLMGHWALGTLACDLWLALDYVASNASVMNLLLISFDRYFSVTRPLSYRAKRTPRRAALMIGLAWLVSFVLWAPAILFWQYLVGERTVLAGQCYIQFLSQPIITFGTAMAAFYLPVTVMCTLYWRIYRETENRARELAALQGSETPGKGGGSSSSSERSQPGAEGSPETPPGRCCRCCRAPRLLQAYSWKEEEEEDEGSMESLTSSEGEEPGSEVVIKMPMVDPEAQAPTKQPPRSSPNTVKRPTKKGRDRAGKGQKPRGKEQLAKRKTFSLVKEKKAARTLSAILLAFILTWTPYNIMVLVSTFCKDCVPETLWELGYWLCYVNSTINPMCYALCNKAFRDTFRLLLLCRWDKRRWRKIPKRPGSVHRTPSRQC
Nature of the series: Phospho-ERK1/2 assay, muscarinic M1. The class given is cell-based. Particulars: for Emax: CHO, read-out: % Emax cf. ACh (M1). The method, boiled down: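 The assay used ERK1/2 phosphorylation as a common downstream read-out of Gq/11 and Gi/o receptor activation. CHO cells expressing each human receptor were exposed to agonist for five minutes at 37 °C after overnight serum starvation. Potency (pEC50) and maximal effect (Emax) came from the AlphaScreen signal.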

The subject of the next series is Rats. Nature of the series: Irwin profile. The class given is in vivo. The method, then:
The method, which detects the principal effects of a test substance on behaviour and physiological function, follows that described by Irwin (1968) Psychopharmacologia. Cholinergic side effects are potentially visible in the behavioural readout of the Irwin assay, and an absence of these side effects can be taken as an indication that agonism of the M2 and M3 receptors is not significant in vivo.
Rats are administered the test substance or its vehicle, and are observed in simultaneous comparison with a control group. Behavioural modifications, physiological and neurotoxicity symptoms, rectal temperature and pupil diameter are recorded according to a standardized observation grid derived from that of Irwin. The grid contains the following items: death, convulsions, tremor, Straub tail, altered activity, jumping, abnormal gait (rolling, tiptoe), motor incoordination, altered abdominal muscle tone, loss of grasping, akinesia, catalepsy, loss of traction, loss of balance, fore-paw treading, writhing, piloerection, stereotypies (sniffing, chewing, head movements), head-twitches, scratching, altered respiration, aggression, altered fear/startle, altered reactivity to touch, ptosis, exophthalmia, loss of righting reflex, loss of corneal reflex, analgesia, defecation/diarrhea, salivation, lacrimation, rectal temperature (hypothermia/hyperthermia) and pupil diameter (myosis/mydriasis). […]

The subject of another series is Male Wistar rats. Nature of the series: Novel object recognition. To be noted: 10 and 30 mg/kg oral gavage 90 minutes prior to training; p<0.05. The format is in vivo. The protocol: The novel object recognition paradigm is based on the greater spontaneous exploration of a novel object, compared with a familiar object, shown by rodents (Ennaceur and Delacour, 1988). […] Male Wistar rats were assessed for cognitive ability in a test apparatus comprising an open-field arena placed in a sound-attenuated room under dimmed lighting. Images of the open-field were captured by digital camera, and viewed on a monitor in an adjoining room. Each rat was subjected to the procedure separately and care taken to remove any olfactory/taste cues by cleaning the arena and test objects with alcohol between trials and rats. All tests are video scored blind to treatment. Following a 10-minute habituation period, each rat was placed into the test arena in the presence of two identical objects (plastic shapes). Each rat was placed facing the same direction at the same position in the arena, and the time spent actively exploring the objects during a 5-minute training period (T1) was recorded. The rat is returned to its home cage between tests. After 24 hours, each rat was again placed in the test arena for 5 minutes (T2) in the presence of one of the familiar objects and a novel object, and the time spent exploring both objects again recorded. The presentation order and position of the objects (left/right) was randomized between rats to prevent bias from order or place preference. Doses of 3, 10 or 30 mg/kg of test compound were administered by oral gavage 90 minutes prior to training (n=8). Donepezil (0.1 mg/kg) and galanthamine (3 mg/kg) were administered via intraperitoneal injection 60 minutes prior to training. Vehicle-treated controls were employed for comparison.

As usually defined, the pEC50 is −log10 of the EC50, conventionally taken in molar units. Usually Emax stands for the size of the effect at its maximum, as opposed to the concentration needed. Regarding `CCOC(=O)N1CCC[C@H](N2CCC(C(=O)NC3(C)CCC3)CC2)CC1` [Example 65, ethyl (4S)-4-{4-[(1-methylcyclobutyl)carbamoyl]piperidin-1-yl)azepane-1-carbondate], in series [1], the pEC50 was 7.50 and the Emax worked out at 104%. The “Irwin observation grid, effects on any parameter vs vehicle” value with Rats (5, 10, 20 and 40 mg/kg, 15, 30, 60, 120 and 180 minutes) is “No significant effects on any parameter were observed”. Also, in the series with Male Wistar rats, the “novel object recognition memory vs vehicle-treated controls” value is given as “significantly improved novel object recognition memory”.
In the case of `CCOC(=O)N1CCCC(N2CCC(C(=O)NC3(C)CCC3)CC2)CC1` (stereo not shown) [Example 27, ethyl 4-(4-((1-methylcyclobutyl)carbamoyl)piperidin-1-yl)azepane-1-carboxylate], in series [1], the pEC50 is 7.34 and the Emax is 117%. The “Irwin observation grid, effects on any parameter vs vehicle” value in the series with Rats (3, 10, 30 and 75 mg/kg po, 15, 30, 60, 120, 180 minutes and 24 hours) is on record as “No effects on any parameter were observed at any time point”.
